What was measured:
CD86 and CD40 = test: Co-stimulatory ligand (CD86 and CD40) expression with Nelfinavir and synthetic TLR4 agonist MPLA; assay type: cell-based; conditions: Nelfinavir plus TLR4 agonist MPLA compared to TLR4 agonist alone
IL-6 = IL-6 production with Nelfinavir and synthetic TLR4 agonist MPLA; assay type: cell-based; conditions: Nelfinavir plus TLR4 agonist MPLA compared to TLR4 agonist alone
Source text: FIG. 1. HIV-protease inhibitors (PIs) trigger robust IRE1 and XBP1 activation and synergize with TLR4 activation to produce cytokines and co-stimulatory molecules. A) XBP1 mRNA maturation (XBP1s) in J774 cells stimulated with dose dependent concentrations of HIV-PIs (similar data were obtained in primary mouse M0s, and various M0 cell lines of human and mouse origin). B) Cell extracts of cells stimulated with Tunicamycin (TM) or HIV-protease inhibitors were monitored for IRE1 activation by phosphorylation in a Phos-tag SDS-PAGE gel, CHOP induction and ATF6a processing. C) Realtime PCR of CHOP induction by the ER-stress inducer TM and the HIV-PI Nelfinavir (NFR) was analyzed in PERK proficient and deficient MEFs. […]
XBP1 mRNA maturation (XBP1s) in J774 cells stimulated with dose dependent concentrations of HIV-PIs (similar data were obtained in primary mouse M0s, and various M0 cell lines of human and mouse origin) see FIG. 1, panel A. Cell extracts of cells stimulated with Tunicamycin (TM) or HIV-protease inhibitors were monitored for IRE1 activation by phosphorylation in a Phos-tag SDS-PAGE gel, CHOP induction and ATF6a processing, see FIG. 1, panel B. Realtime PCR of CHOP induction by the ER-stress inducer TM and the HIV-PI Nelfinavir (NFR) was analyzed in PERK proficient and deficient MEFs see FIG. 1, panel C.

recombinant IRE1 protein = recombinant IRE1 protein (Homo sapiens, UniProt O75460); test: In vitro fluorescent splicing reporter assay with recombinant IRE1 protein; assay type: biochemical; conditions: doses of PIs ranging from 20 uM to 0.63 uM; fluorescence over time
Sequence of recombinant IRE1 protein (O75460 19-977, species assumed): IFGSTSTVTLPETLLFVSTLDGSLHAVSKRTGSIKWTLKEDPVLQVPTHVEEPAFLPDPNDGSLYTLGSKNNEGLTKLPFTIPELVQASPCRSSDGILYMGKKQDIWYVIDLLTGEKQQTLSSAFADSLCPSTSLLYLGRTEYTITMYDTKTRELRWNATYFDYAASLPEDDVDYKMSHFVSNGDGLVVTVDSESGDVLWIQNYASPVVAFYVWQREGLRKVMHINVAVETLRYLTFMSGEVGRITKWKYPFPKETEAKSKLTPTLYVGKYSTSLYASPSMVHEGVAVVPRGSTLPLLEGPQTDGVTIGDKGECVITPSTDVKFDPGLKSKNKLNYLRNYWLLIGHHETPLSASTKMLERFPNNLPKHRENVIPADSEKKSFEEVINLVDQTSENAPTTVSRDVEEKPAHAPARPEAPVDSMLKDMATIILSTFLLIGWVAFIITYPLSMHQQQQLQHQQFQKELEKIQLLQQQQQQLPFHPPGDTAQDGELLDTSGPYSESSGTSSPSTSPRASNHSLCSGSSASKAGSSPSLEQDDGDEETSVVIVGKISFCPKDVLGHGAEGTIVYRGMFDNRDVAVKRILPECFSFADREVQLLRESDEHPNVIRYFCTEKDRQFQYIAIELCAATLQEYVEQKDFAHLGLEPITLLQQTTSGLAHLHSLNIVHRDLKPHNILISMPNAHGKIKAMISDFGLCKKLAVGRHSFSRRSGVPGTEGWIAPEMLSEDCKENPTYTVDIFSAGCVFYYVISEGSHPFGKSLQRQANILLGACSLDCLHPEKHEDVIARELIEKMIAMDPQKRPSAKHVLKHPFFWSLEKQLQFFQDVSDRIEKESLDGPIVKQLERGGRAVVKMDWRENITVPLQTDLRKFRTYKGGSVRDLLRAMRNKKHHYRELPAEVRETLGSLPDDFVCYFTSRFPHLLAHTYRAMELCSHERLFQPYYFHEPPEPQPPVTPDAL

SMILES | CD40 expression (CD86 and CD40) | CD86 expression (CD86 and CD40) | IL-6 production (IL-6) | induction of xbp1 splicing (recombinant IRE1 protein)
Cc1c(O)cccc1C(=O)N[C@@H](CSc1ccccc1)[C@H](O)CN1C[C@H]2CCCC[C@H]2C[C@H]1C(=O)NC(C)(C)C [Nelfinavir] | Increased | Increased | Increased | marked induction
CC(C)CN(C[C@@H](O)[C@H](Cc1ccccc1)NC(=O)O[C@H]1CCOC1)S(=O)(=O)c1ccc(N)cc1 [amprenivir, amprenavir] |  |  |  | not
CC(C)c1nc(CN(C)C(=O)N[C@H](C(=O)N[C@@H](Cc2ccccc2)C[C@H](O)[C@H](Cc2ccccc2)NC(=O)OCc2cncs2)C(C)C)cs1 [ritonivir, ritonavir] |  |  |  | marked induction

Source: patent publication US9956236B2, “Methods for increasing immune responses using agents that directly bind to and activate IRE-1” (Cornell University, priority 2011, dated 2018)
